Experimental data published in patent US10268799B2, “Screening methods for thyroid hormone disruptors based on co-regulator involved simulations” (Nanjing University, priority 2016, dated 2019).
Entries after “also recorded” stand apart in the source; their conditions may differ.

How the values were obtained:
GH3 cells = experiment: GH3 cell proliferation assay (anti-TH potency); format: cell-based, rat; details: for −log RIC20 (relative anti-TH potency): RIC20 (mol/L) is 20% inhibition of proliferation of GH3 cells induced by 0.5 nM T3; for TH disrupting effect determined in GH3 proliferation assay: result in words
Protocol: The rat pituitary tumor cell line GH3 was cultured for determination of the relative TH disrupting potencies. […] Due to cytotoxicity, the other 3 HO-PBDEs were not tested for anti-TH potencies.

human TRα-LBD = biological target: T1, human TRα-LBD (Homo sapiens, UniProt P10827); experiment: Competitive binding assay with Fluorescein-labeled T3 probe, human TRα; details: result in words (FIG. 2A)
T1 sequence (P10827 163-410 isoform P10827-2): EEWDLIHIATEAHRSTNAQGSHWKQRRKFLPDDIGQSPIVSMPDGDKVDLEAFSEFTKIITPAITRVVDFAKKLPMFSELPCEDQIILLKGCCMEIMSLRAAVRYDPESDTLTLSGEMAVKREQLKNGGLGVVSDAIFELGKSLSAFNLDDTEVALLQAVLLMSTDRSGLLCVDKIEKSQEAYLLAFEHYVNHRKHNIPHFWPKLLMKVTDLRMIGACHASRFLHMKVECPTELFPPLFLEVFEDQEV

SMILES	−log RIC20 (relative anti-TH potency) (GH3 cells)	TH disrupting effect determined in GH3 proliferation assay (GH3 cells)	binding affinity with TRα (human TRα-LBD)
Oc1c(Oc2ccc(Br)cc2Br)cc(Br)c(Br)c1Br [2-HO-BDE-123]	7.44	antagonists of the TR	greater affinities
Oc1c(Oc2ccc(Br)cc2Br)ccc(Br)c1Br [2′-OH-BDE-66]	7.09	–	–
Oc1c(Br)cc(Br)cc1Oc1ccc(Br)cc1Br [2′-OH-BDE-68]	7.15	–	–
Oc1c(Br)cc(Br)c(Oc2ccc(Br)cc2Br)c1Br [3-HO-BDE-100]	7.83	–	greater affinities; also recorded: one of the strongest binding ligands
Oc1c(Br)cc(Oc2ccc(Br)cc2Br)c(Br)c1Br [4-HO-BDE-90]	7.59	antagonists of the TR	–
Oc1c(Br)c(Br)c(Oc2c(Br)cc(Br)cc2Br)c(Br)c1Br [4-HO-BDE-188]	8.42	–	–
Oc1cc(Br)c(Oc2ccc(Br)cc2Br)cc1Br [4′-HO-BDE-49]	7.30	–	too weak to detect
Oc1cc(Br)c(Oc2cc(Br)c(Br)cc2Br)cc1Br [4′-HO-BDE-101]	8.11	–	–
Oc1ccc(Oc2ccc(Br)cc2Br)c(Br)c1 [4′-OH-BDE-17]	6.51	–	–
Oc1c(Br)cc(Br)c(Br)c1Oc1ccc(Br)cc1Br [6-HO-BDE-90]	7.76	–	–
Oc1c(Br)c(Br)c(Br)c(Br)c1Oc1ccc(Br)cc1Br [6-HO-BDE-137]	8.03	antagonists of the TR	greater affinities
Oc1cc(Br)c(Br)c(Br)c1Oc1cc(Br)c(Br)c(Br)c1 [6-HO-BDE-157]	8.14	–	–
Oc1cccc(Br)c1Oc1ccc(Br)cc1Br [6′-HO-BDE-17]	6.78	–	–
